# Test system: HepG2 cells
# Test: RNA-seq transcriptome analysis of differentially expressed genes
# Type: cell-based, human
# Protocol: The quality and concentration of RNA were examined by MOPS RNA electrophoresis and Eppendorf BioSpectrometer. The transcriptome analysis was performed by BGI-Wuhan China. The RNA-seq dataset of this study is accessible in the Gene Expression Omnibus (GEO) with an access number of GSE276099. The sequence library for each sample was prepared using the BGISEQ-500 platform with a 50-bp single-end (SE50) format. […]2.2.1) was used to align the clean reads to the reference genome and alignment of the clean reads to the reference genes was carried out using Bowtie2 (v2.4.5) ([Langmead and Salzberg, 2012]; [Kim et al., 2015]). Gene expression levels were calculated by RSEM (v1.3.1) ([Li and Dewey, 2011]). Analysis of differential gene expression was performed using edgeR in the Bioconductor software package ([Robinson et al., 2010]). Using a standard protocol, the RNA samples were also examined by reverse transcription and quantitative polymerase chain reaction (RT-qPCR). In brief, for reverse transcription, total RNA (1 μg) and gDNA wiper Mix were incubated at 42°C for 2 min. The samples were immediately incubated with a master mix containing 10 pmol/μL of poly (dT) primers at 37°C for 15 min and 85°C for 5 s. To detect the expression of specific genes by qPCR analysis, gene-specific primers (shown in Supplementary Table S1) were mixed with the ChamQ Universal SYBER qPCR Master Mix and the reaction was conducted using the Roche Lightcycler 480. The GAPDH value was used to normalize the results of each gene. The RNA-seq data of BCP-treated HepG2 cells were screened for DEGs. Gene symbols were turned into Enterz ID using the org.Hs.eg.db Bio-conductor R package. The cluster profiler (v4.6.2) package was used to perform the Kyoto Encyclopedia of Genes and Genomes (KEGG) and Gene Ontology (GO) enrichment analyses ([Wu et al., 2021]). Following the Transcript per million (TPM) data of the dataset, the line chart, and heatmap were plotted using ggplot2 and pheatmap R packages, respectively.
# [1] = HepG2, 150 µM BCP 24 h vs ethanol, RNA-seq DEG
# [2] = HepG2, 150 µM BCP 24 h vs ethanol, FDR ≤ 0.05, 1.5-fold change
compound,measurement,setting,value
"C=C1CC/C=C(\C)CC[C@@H]2[C@@H]1CC2(C)C [BCP, β-caryophyllene]",TSHZ2 logFC,"BCP vs control HepG2, RNA-seq",0.586
same,TSPAN18 change,"BCP vs control HepG2, RNA-seq",Up
same,TSPAN18 logFC,"BCP vs control HepG2, RNA-seq",0.6055
same,TTC21A change,"BCP vs control HepG2, RNA-seq",Up
same,TTC21A logFC,"BCP vs control HepG2, RNA-seq",1.034
same,TTC30B change,"BCP vs control HepG2, RNA-seq",Up
same,TTC30B logFC,"BCP vs control HepG2, RNA-seq",1.0891
same,TYW1B change,"BCP vs control HepG2, RNA-seq",Down
same,TYW1B logFC,"BCP vs control HepG2, RNA-seq",-0.7579
same,VEPH1 change,"BCP vs control HepG2, RNA-seq",Up
same,VEPH1 logFC,"BCP vs control HepG2, RNA-seq",0.6882
same,WASF3 change,"BCP vs control HepG2, RNA-seq",Down
same,WASF3 logFC,"BCP vs control HepG2, RNA-seq",-1.027
same,WDR86 change,"BCP vs control HepG2, RNA-seq",Down
same,WDR86 logFC,"BCP vs control HepG2, RNA-seq",-0.8076
same,ZNF165 change,"BCP vs control HepG2, RNA-seq",Up
same,ZNF165 logFC,"BCP vs control HepG2, RNA-seq",0.918
same,ZNF284 change,"BCP vs control HepG2, RNA-seq",Down
same,ZNF284 logFC,"BCP vs control HepG2, RNA-seq",-0.7229
same,ZNF341 change,"BCP vs control HepG2, RNA-seq",Down
same,ZNF341 logFC,"BCP vs control HepG2, RNA-seq",-0.6282
same,ADORA2A expression change (BCP_treatment),[1],Down
same,ADRA2C expression change (BCP_treatment),[1],Down
same,ALYREF expression change (BCP_treatment),[1],Down
same,ANK1 expression change (BCP_treatment),[1],Down
same,ANKFN1 expression change (BCP_treatment),[1],Down
same,ARTN expression change (BCP_treatment),[1],markedly downregulated and Down
same,B3GNT4 expression change (BCP_treatment),[1],Down
same,BICDL1 expression change (BCP_treatment),[1],Down
same,BOC expression change (BCP_treatment),[1],Down
same,BOLA2B expression change (BCP_treatment),[1],Down
same,CA5B expression change (BCP_treatment),[1],Down
same,CACNA1E expression change (BCP_treatment),[1],markedly downregulated and Down
same,CAMK2N2 expression change (BCP_treatment),[1],Down
same,CCDC86 expression change (BCP_treatment),[1],Down
same,CCL26 expression change (BCP_treatment),[1],Down
same,CHST6 expression change (BCP_treatment),[1],Down
same,CLIP2 expression change (BCP_treatment),[1],Down
same,CYP26B1 expression change (BCP_treatment),[1],Down
same,DPF1 expression change (BCP_treatment),[1],Down
same,EN2 expression change (BCP_treatment),[1],Down
same,FAM222A expression change (BCP_treatment),[1],Down
same,FBXL22 expression change (BCP_treatment),[1],Down
same,FBXO27 expression change (BCP_treatment),[1],Down
same,FBXO44 expression change (BCP_treatment),[1],Down
same,FRMD3 expression change (BCP_treatment),[1],Down
same,FUT3 expression change (BCP_treatment),[1],Down
same,GBP2 expression change (BCP_treatment),[1],Down
same,GNAZ expression change (BCP_treatment),[1],Down
same,H1-2 expression change (BCP_treatment),[1],Down
same,H2BC11 expression change (BCP_treatment),[1],Down
same,H2BC12 expression change (BCP_treatment),[1],Down
same,H3C6 expression change (BCP_treatment),[1],Down
same,H4C8 expression change (BCP_treatment),[1],Down
same,HPDL expression change (BCP_treatment),[1],Down
same,ISYNA1 expression change (BCP_treatment),[1],Down
same,KCNH3 expression change (BCP_treatment),[1],Down
same,KHDC1 expression change (BCP_treatment),[1],Down
same,LYSMD4 expression change (BCP_treatment),[1],Down
same,MAFA expression change (BCP_treatment),[1],Down
same,MAGEB17 expression change (BCP_treatment),[1],Down
same,MAP1A expression change (BCP_treatment),[1],Down
same,MNX1 expression change (BCP_treatment),[1],Down
same,MYB expression change (BCP_treatment),[1],Down
same,MYEOV expression change (BCP_treatment),[1],Down
same,NES expression change (BCP_treatment),[1],Down
same,NR6A1 expression change (BCP_treatment),[1],Down
same,PAQR5 expression change (BCP_treatment),[1],Down
same,PGF expression change (BCP_treatment),[1],markedly downregulated and Down
same,PI3 expression change (BCP_treatment),[1],Down
same,RAPGEF3 expression change (BCP_treatment),[1],Down
same,RASD2 expression change (BCP_treatment),[1],Down
same,RHBDL3 expression change (BCP_treatment),[1],Down
same,S100A3 expression change (BCP_treatment),[1],Down
same,SCIN expression change (BCP_treatment),[1],Down
same,SHC3 expression change (BCP_treatment),[1],Down
same,SLC4A11 expression change (BCP_treatment),[1],Down
same,SP6 expression change (BCP_treatment),[1],Down
same,STXBP6 expression change (BCP_treatment),[1],Down
same,SYN3 expression change (BCP_treatment),[1],Down
same,TMEM120B expression change (BCP_treatment),[1],Down
same,TMEM158 expression change (BCP_treatment),[1],Down
same,TNFSF15 expression change (BCP_treatment),[1],Down
same,TRNP1 expression change (BCP_treatment),[1],Down
same,VAMP1 expression change (BCP_treatment),[1],Down
same,ZBED6CL expression change (BCP_treatment),[1],Down
same,ZNF284 expression change (BCP_treatment),[1],Down
same,ZNF341 expression change (BCP_treatment),[1],Down
same,number of downregulated genes,[2],245
same,number of upregulated genes,[2],188
same,total number of DEGs,[2],433
same,logFC ABLIM2,"gene ABLIM2, BCP vs control HepG2, RNA-seq",1.01
same,change ABLIM2,"gene ABLIM2, DEG direction, BCP vs control HepG2",Up
same,logFC ACKR3,"gene ACKR3, BCP vs control HepG2, RNA-seq",0.6675
same,change ACKR3,"gene ACKR3, DEG direction, BCP vs control HepG2",Up
same,logFC ACYP2,"gene ACYP2, BCP vs control HepG2, RNA-seq",-0.6093
same,change ACYP2,"gene ACYP2, DEG direction, BCP vs control HepG2",Down
same,logFC ADGRD1,"gene ADGRD1, BCP vs control HepG2, RNA-seq",0.8304
same,change ADGRD1,"gene ADGRD1, DEG direction, BCP vs control HepG2",Up
same,logFC ADGRG6,"gene ADGRG6, BCP vs control HepG2, RNA-seq",0.7321
same,change ADGRG6,"gene ADGRG6, DEG direction, BCP vs control HepG2",Up
same,logFC AKR1B1,"gene AKR1B1, BCP vs control HepG2, RNA-seq",-0.8932
same,change AKR1B1,"gene AKR1B1, DEG direction, BCP vs control HepG2",Down
same,logFC ALDH1L2,"gene ALDH1L2, BCP vs control HepG2, RNA-seq",0.8642
same,change ALDH1L2,"gene ALDH1L2, DEG direction, BCP vs control HepG2",Up
same,logFC ALPI,"gene ALPI, BCP vs control HepG2, RNA-seq",0.9718
same,change ALPI,"gene ALPI, DEG direction, BCP vs control HepG2",Up
same,logFC ALPL,"gene ALPL, BCP vs control HepG2, RNA-seq",1.081
same,change ALPL,"gene ALPL, DEG direction, BCP vs control HepG2",Up
same,logFC ALYREF,"gene ALYREF, BCP vs control HepG2, RNA-seq",-0.7733
same,change ALYREF,"gene ALYREF, DEG direction, BCP vs control HepG2",Down
same,logFC AMPD2,"gene AMPD2, BCP vs control HepG2, RNA-seq",-0.8008
same,change AMPD2,"gene AMPD2, DEG direction, BCP vs control HepG2",Down
same,logFC ANKFN1,"gene ANKFN1, BCP vs control HepG2, RNA-seq",-1.752
same,change ANKFN1,"gene ANKFN1, DEG direction, BCP vs control HepG2",Down
same,logFC ANO2,"gene ANO2, BCP vs control HepG2, RNA-seq",1.524
same,change ANO2,"gene ANO2, DEG direction, BCP vs control HepG2",Up
